Experiment [1] deals with Human primary myoblasts. As to the kind of experiment: Hypertrophy assay (MyoScreen human myotube model): primary screening, retest, dose response. The class given is cell-based. On the procedure: Healthy donor primary skeletal cells (Donor 1 and Donor 3) were Clonetics™ Human Skeletal Muscle Myoblasts (HSMM).
(§1) Hypertrophy and Atrophy Rescue assays were performed using an in vitro fully automated human myotube model called MyoScreen™ (Cytoo, France). This model relies on a tight control of the microenvironment that guides the differentiation of human primary myoblasts. Myotubes formed on MyoScreen™ micropatterns present a high level of maturation together with a highly standardized morphology.
(§2) Human primary myoblasts from donors were seeded in MyoScreen™ micropatterned 96-well plates (Cytoo, France), let them adhere for 24 h in growth medium, then run the differentiation in a low horse serum medium for at least 5 days.
(§3) At Day 0, MyoScreen™ plates (Cytoo, France) containing micropatterns were pre-filled with 200 μl/well of growth medium and stored in the incubator at 37° C. Human primary myoblasts were detached from the flasks, count, and seeded into the plates with 15 000 cells per well in 100 μl of growth medium.
(§4) At Day 1, the growth medium was changed for a differentiation medium, 300 μ/well (DMEM with 0.1% horse serum) in which myoblasts started differentiating and forming myotubes.
(§5) At Day 2, the differentiation medium was changed. Then candidate compounds were diluted with differentiation medium and transferred into the plate. The final concentration of DMSO should be not higher than 0.1%. At least 6 wells were treated with the vehicle as a basal control, and 6 wells were treated with IGF-1 at 100 ng/ml as positive hypertrophy control.
(§6) At Day 6, cells were fixed with formalin 5% for 30 min at room temperature, then permeabilized with Triton X-100 at 0.1% in PBS for 15 min, and blocked with PBS+BSA 1% for 20 minutes. Myotubes were incubated with first antibody against Troponin T in blocking buffer for 1 h30, washed three times with PBS, incubated with secondary antibody and Hoescht ( 1/10000) for 1 h30, and washed three times with PBS.
Images were acquired at 10× magnification with an Operetta High Content Imaging System. Image processing and analysis were performed with dedicated algorithms developed on the Acapella High Content Imaging Software (Perkin Elmer) by CYTOO. Eleven fields per well were acquired.
First, segmentation of myotubes and nuclei were done using respectively the Troponin T staining intensity and the Hoechst staining. […] The threshold of segmentation was set-up in order to avoid detecting the background noise and eliminate aberrant small myotube structures.
Then, an image clean-up step was performed on the Troponin T images in order to remove myotubes that touch the border of the image. The final valid myotubes were used to extract myotube morphology parameters including the myotube width and area, and the number of nuclei per myotube.
Nuclei Count, Fusion Index, Mean myotube Area and Number of nuclei per myotube have been validated as relevant and sensitive readouts of myotube differentiation as well as atrophic and hypertrophic induction.
A primary screening was run to identify hypertrophy compounds that increase the myotube differentiation and size. Candidate compounds were tested at 10 μM in monoplicate on Donor 3 cells.
A retest was run, by cherry picking (same compound batch as primary screening): each hit was tested in the same conditions as in the Primary Screening (Donor 3, 10 μM) in six well replicates.
Dose response assays were performed on two healthy donors (Donors 3 and 1): 8 doses of candidate compounds between 33 μM and 0.015 μM, 2 well replicates per dose.

The subject of experiment [2] is Myotubes from the healthy donor 3. As to the kind of experiment: Atrophy Rescue assay (MyoScreen) with atrophy inducers. On the set-up: key: +++: total rescue; ++: partial rescue; +: low rescue. Format: cell-based, Human. To be noted: tranylcypromine 1 μM; for atrophy rescue, IL-1: inducer IL-1β 25 ng/mL; for atrophy rescue, TGF-β: inducer TGF-β 0.5 ng/mL; for atrophy rescue, TNF-alpha: inducer TNF-α 2 ng/mL; for atrophy rescue, dexamethasone: inducer dexamethasone 100 μM; for atrophy rescue, Myostatin: inducer myostatin 150 ng/mL. On the procedure:
as §1, §2, §3, §4, §5
For Atrophy Rescue assay, one hour after candidate compound addition, atrophy inducers were added at the following final concentration: 150 ng/mL of myostatin, 25 ng/mL of IL-1β, 2 ng/mL of TNF-α, 0.5 ng/mL of TGF-β and 100 μM of dexamethasone.
as §6
Atrophy Rescue assays were performed in triplicate in the presence of atrophy inducers, i.e. TNF-α, IL-1β, Myostatin, TGF-β and dexamethasone, and at 1 μM tranylcypromine.
Atrophy rescue assays was performed for tranylcypromine. Myotubes from the healthy donor 3 were atrophied using different inducers: TNF-α, IL-1β, Myostatin, TGF-β and dexamethasone. The ability of tranylcypromine to block the atrophy induced by these different atrophy inducers was determined.

Experiment [3] relates to Human primary myoblasts. The experiment in a line: Hypertrophy assay (MyoScreen human myotube model): primary screening, retest, dose response. Format: cell-based. The source holds these as a separate data set.
The next experiment has as its system MyoScreen myotubes. The experiment in a line: Acetylcholine Receptor (AchR) Clustering Assay (MyoScreen). The class given is cell-based, Human. To be noted: after 7 days of treatment. Here is the method:
The MyoScreen™ protocol was performed as described in the Hypertrophy and Atrophy rescue assay in example 1 but was stopped at Day 9 instead of Day 6. At the end of the assay, AchR were immunostained using a specific antibody in addition to Troponin T and nuclei. Images were acquired at ×20 with an Operetta High Content Imaging System from Perkin Elmer. Image processing and analyses were performed with a dedicated algorithm developed on the Acapella High Content Imaging Software (Perkin Elmer). Specific readouts were calculated in each well: nuclei count and myotube fusion index, number of AchR, AchR mean area, AchR total area normalized by the myotube total area.
Remarkably, when labeled with a specific anti-AChR antibody, MyoScreen myotubes at 6 days post-differentiation display AChR clusters punctuated along the sarcolemma membrane in the middle of the myotube fiber and in distinct regions at the ends of myotubes. To develop an automated AChR cluster assay, an AChR detection routine was developed that was sensitive and robust enough to analyze aggregate number and size clusters in images using the Operetta/Acapella system (see Materials and Methods).

Setting [4] is: Donor 1, first dose response assay (0.015-33 μM).
[5] abbreviates: Donor 3, first dose response assay (0.015-33 μM).
[6] abbreviates: Homo sapiens, Myoblast, Donor 3, second dose response assay.
[7] abbreviates: Donor 3, second dose response assay, lower concentrations.
The mark [8] stands for this setting: Donor 3, Example 2 dose response.
Setting [9] is: Donor 5, Example 2 dose response.
Where [10] appears, read: Donor 7, compounds at 1 μM (IGF-1 positive control).

Here are results for five molecules from patent US11382872B2, “LSD1 inhibitors as skeletal muscle hypertrophy inducers” (CYTOO, priority 2016, dated 2022).

Counter-ions that a name gives are not always drawn. Like-named read-outs stand apart in the source and are kept apart here.

Consider `N[C@H]1C[C@@H]1c1ccccc1` (relative stereo) [Tranylcypromine, trans-2-phenylcyclopropan-1-amine], for which the entries for the “% Activity” value in the experiment on Human primary myoblasts [1] (setting [4]), with Human primary myoblasts [1] (setting [5]) and with Human primary myoblasts [3] (setting [7]) were 138%, 127% and 135%, respectively. The EC50 is 50 nM with Human primary myoblasts [1] (setting [6]); less than 300 nM in the experiment with Human primary myoblasts [3] (Homo sapiens, Myoblast, Donor 1, first dose response assay); less than 30 nM in the experiment on Human primary myoblasts [3] (Homo sapiens, Myoblast, Donor 3, first dose response assay). Moreover, the “atrophy rescue, IL-1” value in experiment [2] is listed as “+++”. Also, the “atrophy rescue, TGF-β” value in experiment [2] is on record as “+”. Besides, the “atrophy rescue, TNF-alpha” value in experiment [2] is reported as “+”. The “atrophy rescue, dexamethasone” value in experiment [2] is reported as “++”. In addition, the “atrophy rescue, Myostatin” value in experiment [2] is listed as “+++”. The activity at 10 µM with Human primary myoblasts [3] (Homo sapiens, Myoblast, Donor 3, compounds 10 μM, monoplicate (IGF-1 control 100 ng/ml), Myotube fusion index (compound)*100/basal control, read-out: Primary screening (% Activity)) was 176%; in the experiment on Human primary myoblasts [3] (Homo sapiens, Myoblast, Donor 3, compounds 10 μM, six well replicates (IGF-1 control 100 ng/ml), Myotube fusion index (compound)*100/basal control, read-out: Retest (% Activity)), 136%. Also, the “increase in the fusion index or/and myotube area readouts” value with Human primary myoblasts [3] (primary screening and retest, Donor 3, 10 μM) is reported as greater than 30%.
On to `Cl.Cl.NNCCc1ccc(NC(=O)CCCc2ccccc2)cc1` [Bizine], for which the “% Activity” value worked out at 120% in the experiment with Human primary myoblasts [1] (setting [8]), 119% with Human primary myoblasts [3] (setting [9]) and 116% at 1 μM in the experiment with Human primary myoblasts [3] (setting [10]). In addition, the EC50 with Human primary myoblasts [1] (setting [8]) was less than 350 nM; in the experiment with Human primary myoblasts [3] (setting [9]), 87 nM.
In the case of `c1ccc(C2C[C@H]2NC2CCNCC2)cc1` (stereo partly drawn) [GSK LSD1], the EC50 with Human primary myoblasts [1] (setting [6]) was found to be 0.1 nM; with Human primary myoblasts [3] (Homo sapiens, Myoblast, Donor 5, Example 2 dose response), 0.012 nM. Further, the results for the “increase of AchR cluster total area (normalized by total myotube area)” value in the experiment on MyoScreen myotubes (Donor 3) and with MyoScreen myotubes (Donor 5) were 50% and 260%, respectively. Besides, the “% Activity” value in the experiment on Human primary myoblasts [3] (setting [7]) is given as 145%; with Human primary myoblasts [3] (setting [9]) it was 146%. In addition, the activity at 1 µM in the experiment on Human primary myoblasts [3] (Homo sapiens, Myoblast, Donor 7, compounds at 1 μM (IGF-1 positive control)) was 120%; in the experiment with Human primary myoblasts [3] (Homo sapiens, Myoblast, Donor C1, compound at 1 μM (IGF-1 positive control)), 154%; in the experiment on Human primary myoblasts [3] (Homo sapiens, Myoblast, Donor C13, compound at 1 μM (IGF-1 positive control)) it was 123%.
In the experiment with Human primary myoblasts [1] (setting [6]), `CN1CCN(C(=O)CN[C@H]2C[C@@H]2c2ccc(OCc3ccccc3)cc2)CC1` [RN 1 dihydrochloride] had an EC50 of 0.1 nM. In the experiment with Human primary myoblasts [3] (setting [7]), the “% Activity” value came out at 135%.
As to “IGF-1: insulin-like growth factor I, positive hypertrophy control at 100 ng/ml”, the “% Activity” value is 150% in the experiment on Human primary myoblasts [1] (setting [4]); 190% with Human primary myoblasts [1] (setting [8]); 150% in the experiment on Human primary myoblasts [1] (setting [5]); 150% with Human primary myoblasts [3] (setting [7]); 145% in the experiment on Human primary myoblasts [3] (setting [9]); 119% in the experiment with Human primary myoblasts [3] (setting [10]). The “% Activity” value in the experiment with Human primary myoblasts [3] (Donor C1, compound at 1 μM (IGF-1 positive control)) was 124%; in the experiment on Human primary myoblasts [3] (Donor C13, compound at 1 μM (IGF-1 positive control)), 141%. The “Primary screening (% Activity)” value in the experiment with Human primary myoblasts [1] (Donor 3, compounds 10 μM, monoplicate (IGF-1 control 100 ng/ml), Myotube fusion index (compound)*100/basal control) is recorded as 210%. The “atrophy rescue, IL-1” value in experiment [2] was “+++”. Moreover, in experiment [2], the “atrophy rescue, TGF-β” value is recorded as “++”. Further, in experiment [2], the “atrophy rescue, TNF-alpha” value is recorded as “+++”. For the same molecule, the “atrophy rescue, dexamethasone” value in experiment [2] is “+++”. For the same molecule, the “atrophy rescue, Myostatin” value in experiment [2] is recorded as “+++”. Also, the “Retest (% Activity)” value with Human primary myoblasts [3] (Donor 3, compounds 10 μM, six well replicates (IGF-1 control 100 ng/ml), Myotube fusion index (compound)*100/basal control) came to 190%.
